From patent US10391111B2, “Composition for preventing or treating cervical cancer including gypenoside LXXV” (INTELLIGENT SYNTHETIC BIOLOGY CENTER, priority 2015, dated 2019)
“Also recorded” adds a separate entry of the source. Where two headings read alike, the source gives them in different places.

System: HeLa cells
Assay: MTT assay of HeLa cell viability (cytotoxic / anti-proliferative effect)
Format: cell-based
Details: for inhibition of HeLa cells: 50 μM; for effect on cell division: HeLa cells, 2.5 μM to 100 μM; for CC50: read-out: LC50 values against HeLa cells
Protocol: HeLa cells were cultured in DMEM (Dulbecco's Modified Eagle's Medium) containing 10% FBS, 2 mmol/L of glutamine, 100 U/mL penicillin, and […] of streptomycin at 37° C. under 5% CO2 condition. An appropriate amount of GypLXXV in DMSO (dimethyl sulfoxide) was taken according to a final concentration as described and added to the culture medium.
In vitro chemosensitivity was measured by MTT (dimethyl thiazolyl-2,5-diphenyltetrazolium bromide) assay (CellTiter 96® Non-Radioactive Cell Proliferation Assay kit. Promega), 100 μl of HeLa cells were dispensed at a density of 10^4 cells per well in a 96-well plate, and incubated for 24 hrs. To measure anti-proliferative effects of GypLXXV. Rg3(S). Rb1 and GypXVII, 2.5 μM to 100 μM of the compound was diluted with a FBS-free medium, and added to each well. Thereafter, the cells treated with the compound were incubated at 37° C. for 48 hrs, and MTT was added to each well, followed by further incubation for 4 hrs. After aspiration of the culture medium, formazan formed from MTT was dissolved in 100 μl of solubilization/stop solution. Thereafter, optical density of each well was measured at a wavelength of 595 nm using a microplate reader. Results were expressed as LC50 values analyzed using a GraphPad Prism 5 program.

CC(C)=CCC[C@](C)(O[C@@H]1O[C@H](CO[C@@H]2O[C@H](CO)[C@@H](O)[C@H](O)[C@H]2O)[C@@H](O)[C@H](O)[C@H]1O)[C@H]1CC[C@]2(C)[C@@H]1[C@H](O)C[C@@H]1[C@@]3(C)CC[C@H](O)C(C)(C)[C@@H]3CC[C@]12C [GypLXXV, gypenoside LXXV]
inhibition of HeLa cells (48 hrs): almost all HeLa cells were inhibited
anti-cancer / anti-proliferative effect compared with the other compounds (FIG. 2) (HeLa cell viability, 48 hrs): anti-proliferative activity similar to that of Rg3(S); also recorded: higher anti-cancer effects than those of Rb1 or GypXVII
effect on cell division: decreased cell division in a dose-dependent manner
CC50 (Homo sapiens, HeLa, 48 h): 29.9 µM

CC(C)=CCC[C@](C)(O)[C@H]1CC[C@]2(C)[C@@H]1[C@H](O)C[C@@H]1[C@@]3(C)CC[C@H](O[C@@H]4O[C@H](CO)[C@@H](O)[C@H](O)[C@H]4O[C@@H]4O[C@H](CO)[C@@H](O)[C@H](O)[C@H]4O)C(C)(C)[C@@H]3CC[C@]12C [Rg3(S), 20(S)-ginsenoside-Rg3, reference compound]
inhibition of HeLa cells (48 hrs): almost all HeLa cells were inhibited
effect on cell division: decreased cell division in a dose-dependent manner
CC50 (MTT assay, 48 hrs incubation, 2.5 μM to 100 μM compound, FBS-free medium): 23.5 µM
